EC50 data for eight molecules are collected here from patent US9221833B2, “Antiviral compounds” (GILEAD PHARMASSET LLC, priority 2011, dated 2015).

Assay type in all cases: cell-based, HCV
Test [1] has as its system genotype 2a JFH-1 replicon (L31 present in NS5A). As to the kind of experiment: microbe, parasite or virus in culture. The protocol: (§1) Evaluation of cell-based anti-HCV activity: Antiviral potency (EC50) was determined using a Renilla luciferase (RLuc)-based HCV replicon reporter assay. […] To perform the assay for genotype 2a (with M31 present in NS5A) or 2b, NS5A chimeric genotype 2a JFH-1 replicons that encodes a RLuc-Neo reporter and either genotype 2a J6 strain NS5A gene or genotype 2b MD2b-1 strain NS5A gene (both with M31 present) respectively, were either transiently transfected (t) into Huh-Lunet cells or were established as stably replicating replicon cells (s) is provided. Either cells were dispensed into 384-well plates for EC50 assays. To perform the assay for genotype 3 and 4, NS5A chimeric genotype 1b Con1 replicons that encodes a Pi-RLuc reporter and either genotype 3a S52 strain NS5A gene or genotype 4a ED43 strain NS5A gene respectively, were transiently transfected (t) into Huh-Lunet cells, which were subsequently dispensed into 384-well plates. Compounds were dissolved in DMSO at a concentration of 10 mM and diluted in DMSO either manually or using an automated pipeting instrument. Serially 3-fold diluted compounds were either manually mixed with cell culture media and added to the seeded cells or directly added to the cells using an automated instrument. […] 72 hours later, cells were lysed and Renilla luciferase activity quantified as recommended by the manufacturer (Promega-Madison, Wis.). Non-linear regression was performed to calculate EC50 values.

The subject of test [2] is genotype 1a H77 replicon. The experiment in a line: microbe, parasite or virus in culture. The following applies: Hepatitis C virus, read-out: 1a. The protocol: as §1
In test [3] the test system is genotype 2b MD2b-1 strain NS5A gene (M31 present). The experiment in a line: microbe, parasite or virus in culture. The protocol:
as §1

For test [4], the system named is Q30R in genotype 1a NS5A. As to the kind of experiment: Antiviral potency against resistance mutant, 1a Pi-Rluc replicon in Huh-7-derived cured-51 cells. Particulars: read-out: 1a Q30R. The protocol: as §1
To determine the antiviral potency (EC50) against resistance mutants, resistance mutations, including M28T, Q30R, Q30H, L31M, and Y93C in genotype 1a NS5A and Y93H in genotype 1b NS5A, were introduced individually into either 1a Pi-Rluc or 1b Pi-Rluc replicons by site directed mutagenesis. Replicon RNA of each resistant mutant was transiently transfected into Huh-7-derived cured-51 cells and antiviral potency was determined on these transfected cells as described above.
(Replicon systems follow genome replication, usually without infectious particles.)

In test [5] the test system is genotype 3a S52 strain NS5A gene. The experiment in a line: Replicon assay, NS5A chimeric 1b Con1 replicon with 3a NS5A, transiently transfected Huh-Lunet cells. The protocol:
as §1

The test system of test [6] is genotype 2a J6 strain NS5A gene (M31 present). As to the kind of experiment: Replicon assay, NS5A chimeric 2a JFH-1 replicon with 2a J6 NS5A, transient (t) or stable (s), Huh-Lunet cells. The protocol:
as §1

Test [7] relates to genotype 2a JFH-1 replicon (L31 present in NS5A). As to the kind of experiment: microbe, parasite or virus in culture. The following applies: Hepatitis C virus, read-out: 2a JFH.
Test [8] has as its system genotype 4a ED43 strain NS5A gene. As to the kind of experiment: Replicon assay, NS5A chimeric 1b Con1 replicon with 4a NS5A, transiently transfected Huh-Lunet cells. The protocol:
as §1, with “[…],” for “were transiently transfected (t) into Huh-Lunet cells,”

Test [9] deals with genotype 1b Con1 replicon. The experiment in a line: microbe, parasite or virus in culture. The following applies: read-out: 1b. The protocol: as §1
The mark [10] stands for this setting: Hepatitis C virus, read-out: 2a JFH (nM).
The mark [11] stands for this setting: Hepatitis C virus, read-out: 2b.
The mark [12] stands for this setting: Hepatitis C virus, read-out: 2b (s) (nM).
[13] abbreviates: Hepatitis C virus, read-out: 3a.
[14] abbreviates: Hepatitis C virus, read-out: 2a J6.
Setting [15] is: Hepatitis C virus, read-out: 4a.

Each structure is given as a SMILES string. Where two headings read alike, the source gives them in different places.

Take `COC[C@H]1CC(c2ncc(-c3ccc4c(c3)COc3cc5c(ccc6nc([C@@H]7CC[C@H](C)N7C(=O)[C@@H](NC(=O)OC)C(C)C)[nH]c65)cc3-4)[nH]2)N(C(=O)[C@@H](NC(=O)OC)C(C)OC)C1` (stereo in doubt) [Example QA, Methyl {(2S)-1-[(2S,5S)-2-(9-{2-[(2S,4S)-1-{(2S,3S)-3-methoxy-2-[(methoxycarbonyl)amino]butanoyl}-4-(methoxymethyl)pyrrolidin-2-yl]-1H-imidazol-5-yl}-1,11-dihydroisochromeno[4′,3′:6,7]naphtho[1,2-d]imidazol-2-yl)-5-methylpyrrolidin-1-yl]-3-methyl-1-oxobutan-2-yl}carbamate]: the EC50 in test [1] (setting [10]) was 0.007 nM; in test [2], below 1 nM; in test [3] (setting [11]), below 1 nM; in test [3] (setting [12]) it was 0.04 nM; in test [4] (Hepatitis C virus), below 1 nM; in test [5] (setting [13]), below 1 nM. The EC50 in [6] (setting [14]) and in test [7] was below 1 nM in each case.
Turning to `COC(=O)N[C@H](C(=O)N1CCC[C@H]1c1ncc(-c2ccc3c(c2)COc2cc4c(cc2-3)CCc2[nH]c([C@@H]3CCCN3C(=O)[C@H](NC(=O)OC)c3ccccc3)nc2-4)[nH]1)C(C)C` [Example MG], the EC50 in test [2] is below 1 nM; in [3] (setting [11]), below 1 nM; in test [3] (setting [12]), 0.07 nM; in test [4] (Hepatitis C virus), below 1 nM; in test [8] (setting [15]) it was below 1 nM; in test [8] (Hepatitis C virus, read-out: 4a (s) (nM)) it was 0.08 nM. The EC50 in [5] (setting [13]) is below 1 nM; in test [5] (Hepatitis C virus, read-out: 3a (nM)), 0.01 nM; in test [6] (setting [14]) it was below 1 nM; in test [7], below 1 nM.
With `COC(=O)N[C@H](C(=O)N1CCC[C@H]1c1nc2c([nH]1)CCc1cc3c(cc1-2)OCc1cc(-c2cnc([C@@H]4CCCN4C(=O)[C@H](NC(=O)OC)c4ccccc4)[nH]2)ccc1-3)C(C)C` [Example MF, methyl [1-(2-{5-[2-(1-{[(methoxycarbonyl)amino]-3-methyl-1-oxobutan-2-yl}pyrrolidin-2-yl)-1,4,5,11-tetrahydroisochromeno[4′,3′:6,7]naphtho[1,2-d]imidazol-9-yl]-1H-imidazol-2-yl}pyrrolidin-1-yl)-phenyl-1-oxoacet-2-yl]carbamate], the EC50 in test [2], in test [3] (setting [11]), in test [4] (Hepatitis C virus), in test [8] (setting [15]), in test [5] (setting [13]) and in test [6] (setting [14]) was below 1 nM in each case. Further, in [7], the EC50 is below 1 nM.
As to `COC[C@H]1C[C@@H](c2nc3ccc4cc5c(cc4c3[nH]2)OCc2cc(-c3cnc([C@@H]4CCCN4C(=O)[C@H](NC(=O)OC)c4ccccc4)[nH]3)ccc2-5)N(C(=O)[C@@H](NC(=O)OC)C(C)OC)C1` (stereo partly drawn) [Example OU, Methyl {(1R)-2-[(2S)-2-(5-{2-[(2S,4S)-1-{(2S)-2-[(methoxycarbonyl)amino]-3-methoxybutanoyl}-4-(methoxymethyl)pyrrolidin-2-yl]-1,11-dihydroisochromeno[4′,3′:6,7]naphtho[1,2-d]imidazol-9-yl}-1H-imidazol-2-yl)pyrrolidin-1-yl]-2-oxo-1-phenylethyl}carbamate], the EC50 in test [2], in test [3] (setting [11]) and in test [7] was below 1 nM each time.
With `CC[C@@H](C)[C@H](NC(=O)OC)C(=O)N1C[C@@H](C)C[C@H]1c1ncc(-c2ccc3c(c2)COc2cc4c(ccc5nc([C@@H]6C[C@H](COC)CN6C(=O)[C@H](NC(=O)OC)c6ccccc6)[nH]c54)cc2-3)[nH]1` [Example QB, Methyl {(1R)-2-[(2S,4S)-2-(9-{2-[(2S,4S)-1-{(2S,3R)-2-[(methoxycarbonyl)amino]-3-methylpentanoyl}-4-methylpyrrolidin-2-yl]-1H-imidazol-5-yl}-1,11-dihydroisochromeno[4′,3′:6,7]naphtho[1,2-d]imidazol-2-yl)-4-(methoxymethyl)pyrrolidin-1-yl]-2-oxo-1-phenylethyl}carbamate], the EC50 was 0.008 nM in test [1] (setting [10]); below 1 nM in test [2]; below 1 nM in test [3] (setting [11]); below 1 nM in test [4] (Hepatitis C virus); below 1 nM in test [5] (setting [13]); below 1 nM in test [6] (setting [14]). Further, the EC50 in test [7] was below 1 nM.
As for `CC[C@@H](C)C(NC(=O)OC)C(=O)N1C[C@@H](COC)C[C@H]1c1nc2ccc3cc4c(cc3c2[nH]1)OCc1cc(-c2cnc([C@@H]3C[C@H](C)CN3C(=O)[C@@H](NC(=O)OC)[C@H](C)CC)[nH]2)ccc1-4` (stereo partly drawn) [Example QE, Methyl {(3R)-1-[(2S,4S)-2-(9-{2-[(2S,4S)-1-{(2S,3R)-2-[(methoxycarbonyl)amino]-3-methylpentanoyl}-4-methylpyrrolidin-2-yl]-1H-imidazol-5-yl}-1,11-dihydroisochromeno[4′,3′:6,7]naphtho[1,2-d]imidazol-2-yl)-4-(methoxymethyl)pyrrolidin-1-yl]-3-methyl-1-oxopentan-2-yl}carbamate], the EC50 in [2], in test [3] (setting [11]), in test [6] (setting [14]) and in [7] was below 1 nM in each case.
Turning to `CCC(C)[C@H](NC(=O)OC)C(=O)N1C[C@@H](C)CC1c1ncc(-c2ccc3c(c2)COc2cc4c(ccc5nc([C@@H]6C[C@H](COC)CN6C(=O)[C@@H](NC(=O)OC)C(C)C)[nH]c54)cc2-3)[nH]1` (stereo in doubt) [Example QC, Methyl {(2S)-1-[(2S,4S)-2-(9-{2-[(2S,4S)-1-{(2S,3R)-2-[(methoxycarbonyl)amino]-3-methylpentanoyl}-4-methylpyrrolidin-2-yl]-1H-imidazol-5-yl}-1,11-dihydroisochromeno[4′,3′:6,7]naphtho[1,2-d]imidazol-2-yl)-4-(methoxymethyl)pyrrolidin-1-yl]-3-methyl-1-oxobutan-2-yl}carbamate], the EC50 in [1] (setting [10]) is 0.008 nM; in test [2], below 1 nM; in test [3] (setting [11]), below 1 nM; in test [6] (setting [14]), below 1 nM; in test [7] it was below 1 nM.
As to `COC[C@H]1C[C@@H](c2ncc(-c3ccc4c(c3)COc3cc5c(ccc6nc([C@@H]7C[C@H]8C[C@H]8N7C(=O)[C@H](NC(=O)OC)c7ccccc7)[nH]c65)cc3-4)[nH]2)N(C(=O)[C@@H](NC(=O)OC)C(C)C)C1` [Example MV], the EC50 in [1] (genotype 2a JFH replicon, EC50 range class, read-out: 2a JFH) is below 1 nM; in test [1] (genotype 2a JFH replicon, read-out: 2a JFH) it was 0.004 nM; in test [9] it was 0.014 nM; in test [3] (genotype 2b, EC50 range class, transiently transfected cells (t), if unavailable stably replicating cells (s), read-out: 2b) it was below 1 nM; in test [3] (stably replicating cells (s), read-out: 2b (s)), 0.041 nM; in test [3] (transiently transfected cells (t), read-out: 2b (t)), 0.034 nM. Also, the EC50 in test [4] (genotype 1a Q30R resistance mutant, EC50 range class) is below 1 nM; in test [4] (genotype 1a Q30R resistance mutant), 0.012 nM; in test [8] (genotype 4a, EC50 range class, transiently transfected cells (t), if unavailable stably replicating cells (s), read-out: 4a), below 1 nM; in [8] (stably replicating cells (s), read-out: 4a (s)), 0.011 nM; in [5] (genotype 3a, EC50 range class, read-out: 3a), below 1 nM; in test [5] (genotype 3a, read-out: 3a), 0.011 nM. Further, the EC50 is below 1 nM in test [6] (genotype 2a J6, EC50 range class, transiently transfected cells (t), if unavailable stably replicating cells (s), read-out: 2a J6) and 0.047 nM in [6] (transiently transfected cells (t), read-out: 2a J6 (t)).
